In PubChem BioAssay AID687032 (Broad Institute, 2013) one finds AC50 data, which are given here for 75 molecules.

Inconclusive results are not listed.

As usually defined, the AC50 is the midpoint of the concentration-response curve, whichever way the signal moves.

For the experiment, the system named is IOSE-T80 viability, CellTiterGlo ATP luminescence, 96 h. The experiment can be described thus: IOSE-T80 viability loss, PAX8-independent line – cell-based, cherry-pick, selectivity assay for PAX8 inhibitor project, dose response (AID 687032).
On to `Cn1nnnc1Sc1ncnc2scc(-c3cccc(S(C)(=O)=O)c3)c12`, for which the AC50 is 8510 nM. On to `CC(=O)[C@@]1(O)Cc2c(O)c3c(c(O)c2[C@H](O[C@H]2C[C@H](N)[C@H](O)[C@H](C)O2)C1)C(=O)c1ccccc1C3=O`, for which the AC50 is 8800 nM. As for `O=C(CCC(=O)c1ccccc1)NCCc1c[nH]c2ccccc12`, the AC50 is under 260 nM.

For the molecule `O=[N+]([O-])c1cccnc1S(=O)(=O)c1ccccc1`, the AC50 is under 260 nM. On to `COc1ccccc1C(=O)Nc1nc2ccccc2[nH]1`, for which the AC50 was 9810 nM.

For `COc1ccc(CCNc2nnc(Sc3nnnn3-c3ccccc3)s2)cc1OC`, the AC50 is 8840 nM. With `C[C@H](CO)N1C[C@H](C)[C@@H](CN(C)C(=O)Nc2ccnc(N3CCOCC3)c2)OCc2cnnn2CCCC1=O`, the AC50 was under 260 nM. As for `C[C@H](CO)N1C[C@H](C)[C@H](CN(C)S(=O)(=O)c2ccc(Cl)cc2)OCCCC[C@H](C)Oc2ccc(NC(=O)Nc3ccc(C(F)(F)F)cc3)cc2C1=O`, the AC50 is under 260 nM. As to `O=C(c1cc([N+](=O)[O-])ccc1N1CCOCC1)N1CCN(c2ccccc2)CC1`, the AC50 was under 260 nM. Under `Cc1ccsc1/C=N/Nc1cccc(C(=O)O)c1` stands 17300 nM. As to `COc1cc(-c2cnc3c(NC=O)cc(-c4ccccc4)cn23)cc(OC)c1OC`, the AC50 is under 260 nM.

On to `CCCC(=O)NC(c1ccc(C(C)C)cc1)c1ccc2cccnc2c1O` (stereo not given), for which the AC50 is under 260 nM. Regarding `O=C(O)c1cccc(COc2ccc3c(c2)CCC3)c1`, the AC50 was under 260 nM.

`Cc1nnc(N/N=C/c2cc(C)n(-c3ccc(F)cc3)c2C)n1N`: the AC50 was 10200 nM. Regarding `C[C@@H]1CCCCO[C@@H](CN(C)Cc2ccc(C(F)(F)F)cc2)[C@@H](C)CN([C@@H](C)CO)C(=O)c2cc(NS(=O)(=O)c3ccc(F)cc3)ccc2O1`, the half-maximal activity concentration (AC50) was under 235 nM. For `Cc1ccc(NC(=O)Cn2ncc(Cl)c(Cl)c2=O)cc1S(=O)(=O)N1CCCCC1`, the AC50 is under 260 nM. Regarding `O=C(NCc1ccco1)C1CCCN(S(=O)(=O)c2ccc(Br)cc2)C1` (stereo not given), the AC50 was under 260 nM. In the case of `O=C(Nc1ccc(Cl)c(Cl)c1)N[C@@H]1CC[C@H](CCn2cc(C3CCCCC3)nn2)O[C@H]1CO`, the AC50 was under 260 nM. For the molecule `C[C@@H]1CN([C@@H](C)CO)C(=O)Cc2cc(NC(=O)NC3CCCCC3)ccc2O[C@@H]1CN(C)Cc1ccc(-c2ccccc2)cc1`, the AC50 is 27800 nM.

`C[C@@H]1CN([C@H](C)CO)C(=O)c2cc(NC(=O)Nc3ccc(F)cc3)ccc2O[C@@H](C)CCCCO[C@@H]1CN(C)Cc1ccc2c(c1)OCO2`: the AC50 was under 260 nM. Under `C[C@@H]1CCCCO[C@H](CN(C)C(=O)C2CCCCC2)[C@@H](C)CN([C@@H](C)CO)C(=O)c2cc(NC(=O)Nc3ccc(F)cc3)ccc2O1` stands under 260 nM. Take `C[C@H]1CCCCO[C@H](CN(C)Cc2ccc(C(F)(F)F)cc2)[C@@H](C)CN([C@@H](C)CO)C(=O)c2cc(NS(=O)(=O)c3ccc(Cl)cc3)ccc2O1`: the AC50 is under 260 nM. `O=S(=O)(c1ccccc1F)N1CC[C@@H]2[C@@H](CO)Nc3ccc(C4=CCCCC4)cc3[C@@H]21`: the AC50 is under 260 nM. As to `COc1cccc(S(=O)(=O)N2CC[C@H]3[C@@H](CO)N(C)c4ccc(C#Cc5ccc(F)cc5)cc4[C@H]32)c1`, the AC50 is 34500 nM. As for `C[C@@H]1CCCCO[C@@H](CN(C)C(=O)Nc2cccc3ccccc23)[C@H](C)CN([C@H](C)CO)C(=O)c2cc(NS(=O)(=O)c3ccccc3)ccc2O1`, the AC50 is under 260 nM.

As to `CCOc1ccc(-n2c(=S)sc3c(=O)[nH]c(SCC(=O)NCC4CCCO4)nc32)cc1` (stereo not given), the AC50 is under 260 nM. As for `C[C@@H]1CN([C@H](C)CO)C(=O)c2cc(NC(=O)Nc3ccc(C(F)(F)F)cc3)ccc2O[C@@H](C)CCCCO[C@H]1CN(C)Cc1ccccc1`, the AC50 was under 260 nM. For `COc1ccc(F)cc1-c1cc(NC=O)c2ncc(-c3cc(OC)c(OC)c(OC)c3)n2c1`, the AC50 was under 260 nM. `Cc1cnc(NC(=O)CSc2nnc(C)n2N)s1`: the AC50 is under 260 nM. `C[C@@H]1CCCCO[C@@H](CN(C)Cc2ccc(Cl)c(Cl)c2)[C@H](C)CN([C@H](C)CO)C(=O)c2cc(NC(=O)Nc3ccc(C(F)(F)F)cc3)ccc2O1`: the AC50 was 35600 nM. With `C[C@H](CO)N1C[C@H](C)[C@H](CN(C)S(=O)(=O)c2ccc(Cl)cc2)OCCCC[C@H](C)Oc2ccc(NS(=O)(=O)c3ccc(F)cc3)cc2C1=O`, the AC50 was under 260 nM. Take `CN1c2ccc(-c3cccc(F)c3)cc2[C@@H]2[C@@H](CCN2C(=O)Cc2ccccc2)[C@@H]1CO`: the AC50 was under 260 nM. As for `O=C1CN(C(=O)Cn2ncc(Cl)c(Cl)c2=O)c2ccccc2N1`, the AC50 is under 260 nM. Consider `CCC(c1nnnn1Cc1ccccc1)N1CCC(n2c(=O)[nH]c3ccccc32)CC1` (stereo not given), for which the AC50 was under 260 nM. As to `C[C@@H]1CCCCO[C@H](CN(C)C(=O)Cc2ccccc2)[C@@H](C)CN([C@@H](C)CO)C(=O)c2cc(NC(=O)Nc3ccc(C(F)(F)F)cc3)ccc2O1`, the AC50 is under 260 nM.

With `Cc1ccc(S(=O)(=O)Nc2cccc3c2O[C@@H](CN(C)Cc2ccc(Oc4ccccc4)cc2)[C@@H](C)CN([C@H](C)CO)C3=O)cc1`, the AC50 is under 260 nM. For `CCOC(=O)Nc1ccc2c(c1)N(C(=O)CCN(CC)CC)c1ccccc1S2=O` (stereo not given), the AC50 is under 260 nM. On to `CCC(C)(O)C(=O)OC1C(=O)OC2CC3C(C)=CC(=O)C(O)C3(C)C3C4(O)OCC23C1C(C)C4O` (stereo not given), for which the AC50 is 8840 nM.

Take `CC1CN(CC(O)COC(c2ccccc2)c2ccccc2)CC(C)O1` (stereo not given): the AC50 was under 260 nM. With `O=S(=O)(NCC1CCCO1)c1cnc(Cl)c(Br)c1` (stereo not given), the AC50 is under 260 nM.

For the molecule `Cc1ccc(NC(=O)CN(C)C(=O)Cn2ncc(Cl)c(Cl)c2=O)cc1`, the half-maximal activity concentration (AC50) was under 260 nM. Under `C[C@@H]1CN([C@H](C)CO)C(=O)c2cc(NS(=O)(=O)c3ccc(Cl)cc3)ccc2O[C@@H](C)CCCCO[C@@H]1CN(C)Cc1ccccc1` stands under 260 nM; under `CC(C)(C)[C@H](N)C(=O)N[C@H]1CCC2C3CC=C4C[C@@H](O)CC[C@]4(C)C3CC[C@@]21C` (stereo not given in full), under 260 nM.

For the molecule `O=C1c2cccc3cc([N+](=O)[O-])cc(c23)C(=O)N1CCN1CCCC1`, the AC50 is under 260 nM. Regarding `O=C(C(=O)N(Cc1ccccc1)Cc1ccccc1)c1c(-c2ccccc2)[nH]c2ccccc12`, the AC50 is under 260 nM.

With `COCCn1c(C)cc(C2=NNC(=NC3CC3)SC2)c1C`, the AC50 is under 260 nM. With `C[C@H](CO)N1C[C@H](C)[C@@H](CN(C)S(=O)(=O)c2ccc(Cl)cc2)OCCCC[C@H](C)Oc2ccc(NS(=O)(=O)c3ccc(Cl)cc3)cc2C1=O` the figure was under 260 nM. With `C[C@]12CCC3C(CCC4=CC(O)CC[C@@]43/C=N/O)C1(O)CCC2C1=CC(=O)OC1` (stereo not given in full) the figure was under 260 nM; with `COc1cc(/C=N/O)ccc1OCc1ccc(C(=O)O)cc1`, 9950 nM.

`Cc1ccc(S(=O)(=O)N(C)C[C@@H]2Oc3cc(C#Cc4ccncc4)ccc3S(=O)(=O)N([C@H](C)CO)C[C@H]2C)cc1`: the AC50 was 3050 nM. Take `S=c1sc2c(Cl)ncnc2n1-c1ccccc1`: the AC50 was under 260 nM.

On to `O=C(Nc1cccc(NC(=O)c2cccs2)c1)c1ccc([N+](=O)[O-])o1`, for which the AC50 was 8620 nM. Under `COc1ccc(CC2C(=O)NC(C)C(=O)N(C)C3Cc4ccc(cc4)Oc4cc(ccc4O)CC(C(=O)NC(C)C(=O)NC(C)C(=O)N2C)N(C)C3=O)cc1` (stereo not given) stands 27800 nM; under `CCCn1c(C)cc(C(=O)CN2C(=O)c3ccccc3S2(=O)=O)c1C`, under 260 nM. Under `COc1ccc(Cn2cc3c(-c4ccc(F)cc4)nnc-3c3cc(OC)c(OC)cc32)cc1` stands 8490 nM. Take `CCN1CCN(c2nc(-c3cccs3)nc3ccccc23)CC1`: the AC50 is 10400 nM. On to `COc1ccc(-n2nc3c(N4CCC(C(=O)NCc5cccc(C)c5)CC4)nnc(C)c3c2C)cc1`, for which the AC50 is under 260 nM. For `COc1cccc(N2CCN(C(=O)c3ccc(CS(=O)c4ccccc4Cl)o3)CC2)c1` (stereo not given), the AC50 was under 260 nM. For the molecule `CCCNC(=O)Nc1ccc2c(c1)OC[C@H](C)N(Cc1ccc(-c3ccccn3)cc1)C[C@@H](C)[C@@H](OC)CN(C)C2=O`, the AC50 is under 260 nM.

For the molecule `C[C@H]1CCCCO[C@H](CN(C)Cc2ccc(C(F)(F)F)cc2)[C@@H](C)CN([C@@H](C)CO)C(=O)c2cc(NC(=O)c3ccccc3)ccc2O1`, the AC50 was 32100 nM. With `Cc1noc(C)c1S(=O)(=O)Nc1ccc2c(c1)C(=O)N([C@H](C)CO)C[C@H](C)[C@@H](CN(C)C(=O)Nc1ccc(C(F)(F)F)cc1)OCCCC[C@H](C)O2`, the AC50 was 23300 nM.

With `Cc1ccc2c(c1)c1c3n2CCN(CC(N)=O)C3CCC1` (stereo not given), the AC50 was 10200 nM. As to `Cc1cc(Nc2ccc3c(c2)OCCO3)c2ccccc2n1`, the AC50 is under 260 nM. For the molecule `COc1ccc(-c2nc3c(c(SCC(=O)Nc4cccc(O)c4)n2)Cc2c(CO)cnc(C)c2O3)cc1`, the AC50 was 8550 nM.

Regarding `C[C@H](CO)N1C[C@H](C)[C@H](CN(C)Cc2ccc(C(F)(F)F)cc2)OCCCC[C@H](C)Oc2ccc(NS(=O)(=O)c3ccccc3)cc2C1=O`, the AC50 was under 260 nM. Under `Cc1ccc(C(=O)N/C(=C\c2ccc(-c3ccc(Br)cc3)o2)C(=O)NCCCN(C)C)cc1` stands 9400 nM; under `O=C(C[C@H]1CC[C@H]2[C@@H](COC[C@@H](O)CN2Cc2ccc(Oc3ccccc3)cc2)O1)N1CCCCC1`, under 260 nM. `COc1ccc(S(=O)(=O)Nc2ccc3c(c2)C(=O)N([C@@H](C)CO)C[C@H](C)[C@@H](CN(C)Cc2ccc(C(F)(F)F)cc2)OCCCC[C@H](C)O3)cc1`: the AC50 was under 260 nM. On to `FC(F)(F)c1nnc2c(Sc3ccccn3)nc3ccccc3n12`, for which the AC50 was 8850 nM. As for `COc1cc(C2C3=C(COC3=O)Oc3cc4c(cc32)OCO4)cc(OC)c1O` (stereo not given), the AC50 is under 260 nM. Take `O=C(NC12CC3CC(CC(C3)C1)C2)c1ccc([N+](=O)[O-])o1`: the AC50 was under 260 nM. With `COc1ccc(NC(=O)Nc2ccc3c(c2)C(=O)N([C@@H](C)CO)C[C@@H](C)[C@@H](CN(C)CC2CCCCC2)OCCCC[C@@H](C)O3)cc1` the figure was under 260 nM.

As for `Cc1ccc(S(=O)(=O)Nc2ccc3c(c2)C(=O)N([C@H](C)CO)C[C@@H](C)[C@H](CN(C)Cc2ccc(C(F)(F)F)cc2)OCCCC[C@@H](C)O3)cc1`, the AC50 was under 260 nM.

Consider `Nc1nc(=S)c2[nH]cnc2[nH]1`, for which the AC50 is under 260 nM.

For the molecule `COc1cccc(-c2ccc([C@H]3[C@@H](CO)N(C(=O)Cc4ccccc4)[C@H]3C#N)cc2)c1`, the AC50 was under 260 nM.
